In assay [1] the test system is VEEV TC83. The assay is described as follows: microbe, parasite or virus in culture. The class given is cell-based. The settings on record: Venezuelan equine encephalitis virus, Vero 76, 48 h, read-out: VEEV TC83 EC50 nM.
In assay [2] the test system is WEEV California. The experiment in a line: microbe, parasite or virus in culture. The class given is cell-based. The settings on record: Western equine encephalitis virus, Vero 76, 48 h, read-out: WEEV California EC50 nM.

The term EC50 denotes the concentration giving half of the maximal effect. Consider `COc1ccc(-n2c(C3CCCN3)nc3c(N4CCC(N5CCOCC5)CC4)cc(C#N)cc3c2=O)cc1F` (centres unmarked) [Example 114, 3-(3-fluoro-4-methoxyphenyl)-8-(4-morpholinopiperidine-1-yl)-4-oxo-2-(pyrrolidin-2-yl)-3,4-dihydroquinazoline-6-carbonitrile], for which the EC50 in assay [1] was 1 to 50 nM; in assay [2], 51 to 150 nM. Turning to `COc1ccc(-n2c([C@H]3CC(=O)CN3)nc3c(-c4ccc(C)nc4)cc(C#N)cc3c2=O)cc1F` [Example 186, (R)-3-(3-fluoro-4-methoxyphenyl)-8-(6-methylpyridin-3-yl)-4-oxo-2-(4-oxopyrrolidin-2-yl)-3,4-dihydroquinazoline-6-carbonitrile], the EC50 in assay [1] is 151 to 500 nM; in assay [2] it was 501 to 1000 nM. With `COc1ccc(-n2c([C@H]3CCCN3)nc3c(-c4ccc(C)nc4)cc(C#N)cc3c2=O)cc1F` [Example 102, (R)-3-(3-fluoro-4-methoxyphenyl)-8-(6-methylpyridin-3-yl)-4-oxo-2-(pyrrolidin-2-yl)-3,4-dihydroquinazoline-6-carbonitrile], the EC50 in assay [1] and in assay [2] was 1 to 50 nM each time.

Regarding `COc1ccc(-n2c(C3CCCN3)nc3c(C#Cc4ccc(C)nc4)cc(C#N)cc3c2=O)cc1F` (centres unmarked) [Example 194, 3-(3-Fluoro-4-methoxyphenyl)-8-((6-methylpyridin-3-yl)ethynyl)-4-oxo-2-(pyrrolidin-2-yl)-3,4-dihydroquinazoline-6-carbonitrile], the EC50 in assay [1] and in assay [2] was 51 to 150 nM throughout. As for `COc1ccc(-n2c([C@@H]3CCCN3)nc3c(C)cc(C#N)cc3c2=O)cc1` [Example 51, (S)-3-(4-methoxyphenyl)-8-methyl-4-oxo-2-(pyrrolidin-2-yl)-3,4-dihydroquinazoline-6-carbonitrile], the EC50 is 151 to 500 nM in assay [1] and 501 to 1000 nM in assay [2]. `O=c1c2cc([N+](=O)[O-])ccc2nc([C@@H]2CCCN2)n1-c1ccc(OC(F)(F)F)cc1` [Example 46, (S)-6-nitro-2-(pyrrolidin-2-yl)-3-(4-(trifluoromethoxy)phenyl)quinazolin-4 (3H)-one]: the EC50 in assay [1] and in assay [2] was above 1000 nM throughout.

Consider `COc1ccc(-n2c([C@@H]3CCN(C)C3)nc3c(C)cc([N+](=O)[O-])cc3c2=O)cc1F` [Example 68, (R)-3-(3-fluoro-4-methoxyphenyl)-8-methyl-2-(1-methylpyrrolidin-3-yl)-6-nitroquinazolin-4 (3H)-one], for which the EC50 in assay [1] and in assay [2] was 151 to 500 nM in each case. Turning to `COCCOc1c(F)cc(-n2c(C3CCCN3)nc3c(-c4ccnc(C)c4)cc(C#N)cc3c2=O)cc1F` (centres unmarked) [Example 161, 3-(3,5-Difluoro-4-(2-methoxyethoxy)phenyl)-8-(2-methylpyridin-4-yl)-4-oxo-2-(pyrrolidin-2-yl)-3,4-dihydroquinazoline-6-carbonitrile], the EC50 in assay [1] lay within 51 to 150 nM; in assay [2], 151 to 500 nM. `COc1ccc(-n2c([C@@H]3CCCN3)nc3c(-c4ccncc4)cc([N+](=O)[O-])cc3c2=O)cc1F` [Example 84, (S)-3-(3-fluoro-4-methoxyphenyl)-6-nitro-8-(pyridin-4-yl)-2-(pyrrolidin-2-yl) quinazolin-4 (3H)-one]: the EC50 in assay [1] and in assay [2] was 1 to 50 nM in each case. For `COc1ncc(-n2c(C34CC(CN3)C4)nc3c(-c4ccc(C)nc4)cc(C#N)cc3c2=O)cn1` [Example 165, 2-(2-azabicyclo[2.1.1]hexan-1-yl)-3-(2-methoxypyrimidin-5-yl)-8-(6-methylpyridin-3-yl)-4-oxo-3,4-dihydroquinazoline-6-carbonitrile], in assay [1], the EC50 is above 1000 nM.

`COc1ccc(-n2c(C3CCCN3)nc3c(Oc4ccc(C)nc4)cc(C#N)cc3c2=O)cc1F` (centres unmarked) [Example 191, 3-(3-fluoro-4-methoxyphenyl)-8-((6-methylpyridin-3-yl)oxy)-4-oxo-2-(pyrrolidin-2-yl)-3,4-dihydroquinazoline-6-carbonitrile]: in assay [1], the EC50 fell in the range of 1 to 50 nM. For `COc1ccc(-n2c([C@@H]3CC(F)(F)CN3)nc3c(-c4ccc(C)nc4)cc(C#N)cc3c2=O)cc1F` [Example 183, (S)-2-(4,4-difluoropyrrolidin-2-yl)-3-(3-fluoro-4-methoxyphenyl)-8-(6-methylpyridin-3-yl)-4-oxo-3,4-dihydroquinazoline-6-carbonitrile], in assay [1], the EC50 lay within 151 to 500 nM. Same read-out and setting: as for `COc1ccc(-n2c([C@@H]3C[C@H](C(F)(F)F)CN3)nc3c(-c4ccc(C)nc4)cc(C#N)cc3c2=O)cc1F` (racemic) [Example 190, cis-(±)-3-(3-fluoro-4-methoxyphenyl)-8-(6-methylpyridin-3-yl)-4-oxo-2-((2S,4S)-4-(trifluoromethyl)pyrrolidin-2-yl)-3,4-dihydroquinazoline-6-carbonitrile], the figure is 1 to 50 nM. For the compound `COc1ccc(-n2c([C@H]3CCCN3)nc3c(N4CCC(N5CCOCC5)CC4)cc(C#N)cc3c2=O)cc1F` [Example 179, (R)-3-(3-fluoro-4-methoxyphenyl)-8-(4-morpholinopiperidin-1-yl)-4-oxo-2-(pyrrolidin-2-yl)-3,4-dihydroquinazoline-6-carbonitrile], in assay [1], the EC50 is 1 to 50 nM.

As for `COc1c(F)cc(-n2c(C3CCCN3)nc3c(-c4ccc(C(C)(C)O)nc4)cc(C#N)cc3c2=O)cc1F` (centres unmarked) [Example 182, 3-(3,5-difluoro-4-methoxyphenyl)-8-(6-(2-hydroxypropan-2-yl)pyridin-3-yl)-4-oxo-2-(pyrrolidin-2-yl)-3,4-dihydroquinazoline-6-carbonitrile], in assay [1], the EC50 was in the range of 1 to 50 nM. For the compound `COc1ccc(-n2c([C@@H]3C[C@@](O)(C(F)(F)F)CN3)nc3c(-c4ccc(C)nc4)cc(C#N)cc3c2=O)cc1F` [Example 192, 3-(3-fluoro-4-methoxyphenyl)-2-((2S,4S)-4-hydroxy-4-(trifluoromethyl)pyrrolidin-2-yl)-8-(6-methylpyridin-3-yl)-4-oxo-3,4-dihydroquinazoline-6-carbonitrile], in assay [1], the EC50 was 1 to 50 nM. As to `COc1ccc(-n2c(C34CC(CN3)C4)nc3c(-c4ccc(C)nc4)cc(C#N)cc3c2=O)cc1F` [Example 178, 2-(2-azabicyclo[2.1.1]hexan-1-yl)-3-(3-fluoro-4-methoxyphenyl)-8-(6-methylpyridin-3-yl)-4-oxo-3,4-dihydroquinazoline-6-carbonitrile], the EC50 in assay [1] is 1 to 50 nM. Turning to `COc1ccc(-n2c(C3CCCN3)nc3c(-c4ccc(CO)nc4)cc(C#N)cc3c2=O)cc1F` (centres unmarked) [Example 181, 3-(3-fluoro-4-methoxyphenyl)-8-(6-(hydroxymethyl)pyridin-3-yl)-4-oxo-2-(pyrrolidin-2-yl)-3,4-dihydroquinazoline-6-carbonitrile], in assay [1], the EC50 was in the range of 1 to 50 nM.

On to `COc1c(F)cc(-n2c(C3CCCN3)nc3c(-c4ccc(C(C)=O)nc4)cc(C#N)cc3c2=O)cc1F` (centres unmarked) [Example 177, 8-(6-acetylpyridin-3-yl)-3-(3,5-difluoro-4-methoxyphenyl)-4-oxo-2-(pyrrolidin-2-yl)-3,4-dihydroquinazoline-6-carbonitrile], for which the EC50 in assay [1] lay within 1 to 50 nM. Take `COc1ccc(-n2c(C3C[C@@H](OC)CN3)nc3c(-c4ccc(C)nc4)cc(C#N)cc3c2=O)cc1F` (stereo partly drawn) [Example 120, 3-(3-fluoro-4-methoxyphenyl)-2-((4R)-4-methoxypyrrolidin-2-yl)-8-(6-methylpyridin-3-yl)-4-oxo-3,4-dihydroquinazoline-6-carbonitrile]: in assay [1], the EC50 fell in the range of 151 to 500 nM.

The values above are taken from US20220348558A1, “INHIBITORS OF ENCEPHALITIC ALPHAVIRUSES” (priority 2019, published 2022).
